# Assay results as given in patent US20240391950A1, “PEPTIDE CROSSLINKING AGENT AND CROSSLINKED PEPTIDE WHICH IS CROSSLINKED USING SAID CROSSLINKING AGENT” (Kagoshima University, priority 2020, published 2024).
# Starred links: 1 amine or outer side, 2 acyl side, 3 side chain; linkers in the order of their positions; H or OH if unused. Positions of bridges follow the written chain, without caps; N, C: chain ends. Residues, ends and D or L forms follow the SMILES beside them. X4 = C#CCON=C(C)C([*:1])[*:2]
# How the values were obtained:
# α-chymotrypsin = target: T1, α-chymotrypsin (Bos taurus, UniProt P00766); assay: Resistance to α-chymotrypsin digestion followed by reverse-phase HPLC; format: in vitro ADME, bovine; settings: for change of HPLC peak after addition of α-chymotrypsin: α-chymotrypsin 1/10 weight ratio, 37° C.; for resistance to protease (FIG. 10): α-chymotrypsin
# T1 construct: purchased MP Biomedicals; host or cells: bovine pancreas
# Procedure: For evaluation of stability of a peptide by crosslinking reaction, resistivity of α-chymotrypsin (derived from bovine pancreas, manufactured by MP Biomedicals) to protease decomposition was evaluated with oxytocin crosslinked by 2,2-dichloroacetophenone. Crosslinking of oxytocin by 2,2-dichloroacetophenone was performed in the same manner with replacement of 1.1-dichloroacetone in Example 11 by 2,2-dichloroacetophenone, and an objective product was taken by reverse-phase HPLC. Specifically, 10 mg (10 μmol) of oxytocin acetate was dissolved in 3 mL of a 0.1 M HEPES hydrochloric acid buffer (pH 8.0), the solution was mixed with 2 mL of a 0.1 M HEPES hydrochloric acid buffer (pH 8.0) containing 57.4 mg (200 μmol) of TCEP-HCl, and the mixture was stirred for 1 hour. Next, 8.3 mg (44 μmol) of 2,2-dichloroacetophenone dissolved in 0.44 mL of acetonitrile was added and mixed, and the mixture was stirred at room temperature for 1 hour. The resulting sample was applied to an InertSustain C18 column (5 μm, 14×250 mm, manufactured by GL Sciences Inc.) (flow rate 5 mL/min) connected to LC-Forte (manufactured by YMC). The elution was performed at a linear gradient from 4% to 70% (containing 0.1% formic acid). An objective product was taken, and freeze-dried after removal of acetonitrile at a negative pressure.
# Evaluation was made with oxytocin-OX and an oxytocin SH reduced form (oxytocin-RD) shown by the following formula A3 used as comparison subjects. In other words, an oxytocin solution obtained by dissolution in a 0.1 M phosphate buffer (pH 7.0) at 0.5 mg/mL was adopted as oxytocin-OX, and a substance obtained after a lapse of 30 minutes from addition of an oxytocin solution obtained by dissolution in a 0.1 M phosphate buffer (pH 7.0) containing 0.5 mg/mL TCEP, at 0.5 mg/mL, was adopted as oxytocin-RD. To 200 μL of each of these solutions was 10 μL ( 1/10 on weight ratio to oxytocin) of 1 mg/mL α-chymotrypsin, and the resultant was subjected to incubation at 37° C. and analysis by reverse-phase HPLC. In the case of blank, a phosphate buffer was added instead of α-chymotrypsin.
# A substance obtained after a lapse of 30 minutes from dissolution of 0.5 mg/mL oxytocin-DP purified, in a 0.1 M phosphate buffer (pH 7.0) containing 0.5 mg/mL TCEP, was adopted as a sample, and similarly α-chymotrypsin was added and analysis by reverse-phase HPLC was made.
# human serum-derived IgG = assay: Dynamic binding capacity (DBC) measurement and alkali resistance evaluation of peptide-immobilized column; settings: for Dynamic binding capacity: 10% breakthrough
# Procedure: Five mL of 1 mM hydrochloric acid was sent to an NHS-activated prepacked column having a volume of 1 mL, and an isopropanol solution in the column was removed. Next, a 10.0 mg/mL peptide solution (dissolved in 100 μL of DMSO) was diluted with a coupling solution (20 mM carbonate buffer, 50 mM sodium chloride, pH 8.3) by 10-fold, 1 mL of the dilution liquid was sent, and immobilization was performed at room temperature for 4 hours. Thereafter, unreacted NHS was blocked by 5 mL of 1 M Tris (pH 8.0) at room temperature for 1 hour. Thereafter, washing with 5 mL of an aqueous 0.1 N NaOH solution was made. Finally, 10 mL of a PBS solution (20 mM phosphate buffer, 150 mM sodium chloride, pH 7.4) was sent, and used in chromatography evaluation.
# A column where the amount of immobilization of a peptide was 1 mg was produced by the same method as described above. The column produced was equilibrated with PBS, and 1 mg/mL human serum-derived IgG (manufactured by Sigma-Aldrich Co. LLC) dissolved in PBS was sent at a flow rate of 1 mL/min (retention time 1 min). DBC was indicated as one determined from the amount of a protein added at the time of point where 10% of the absorbance at 280 nm of the sample added was leaked.
# Next, 5 mL of an aqueous 0.1 N sodium hydroxide solution was sent to the 1-mL column where 1 mg of the peptide was immobilized. Thereafter, washing with PBS was performed. This cycle was repeated 30 times for the 1,1-dichloroacetone-crosslinked cyclic peptide, and was repeated 10 times for the 1,1-dichloropinacolin-crosslinked cyclic peptide. DBC measurement was performed at a flow rate of 1 mL/min at the 1st to 5th and 10th times of the cycles, and further performed at the 20th and 30th times of the cycles with respect to the 1,1-dichloroacetone-crosslinked cyclic peptide, and thus alkali resistance was evaluated. The variation in DBC was determined based on the measurement results under the assumption that DBC immediately after column production was 100% according to Table 2.
# Five mL of a 0.1 M sodium hydroxide solution was sent to the produced 1-mL column where the amount of immobilization of a peptide was 1 mg, and thereafter washing with 5 mL of PBS was performed. These operations were defined as one cycle and treatment of washing with aqueous NaOH solution/washing with PBS was performed 1 to 30 times, and thereafter DBC measurement was performed at a flow rate of 1 mL/min at the intended number of times (1, 2, 3, 4, 5, 10, 20, 30 times).
# human IgG1 = human IgG1 (Homo sapiens, UniProt P01857); assay: SPR (BIAcore T200) measurement of binding affinity of crosslinked cyclic peptide to immobilized IgG
# Sequence of human IgG1 (P01857 1-328 limits assumed): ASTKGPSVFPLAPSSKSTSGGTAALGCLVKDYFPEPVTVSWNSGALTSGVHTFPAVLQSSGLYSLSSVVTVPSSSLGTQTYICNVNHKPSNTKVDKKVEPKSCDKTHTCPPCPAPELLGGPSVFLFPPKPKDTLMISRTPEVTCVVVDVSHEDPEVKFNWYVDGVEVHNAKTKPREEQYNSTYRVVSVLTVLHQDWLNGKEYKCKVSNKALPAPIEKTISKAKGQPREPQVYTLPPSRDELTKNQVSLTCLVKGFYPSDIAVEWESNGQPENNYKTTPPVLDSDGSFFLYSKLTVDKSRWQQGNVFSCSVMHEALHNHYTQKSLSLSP
# Procedure: The affinity analysis was performed by the following method. First, a CM5 sensor chip was installed on BIAcoreT200 (GE healthcare), and 0.4 M 1-ethyl-3-(3-dimethylaminopropyl)carbodiimide (EDC) and a 0.1 M sulfo-N-hydroxysuccinimide (sulfo-NHS) solution mixed in equivalent amounts were injected to the sensor chip at a flow rate of […], to thereby activate the sensor chip. Thereafter, IgG was immobilized onto the sensor chip under a condition of a pH of 5.5 (10 mM Na acetate). An HBS-EP buffer (10 mM HEPES, 150 mM NaCl, 0.005% Tween 20, 3 mM EDTA, pH 7.4) was used in measurement, and 15.625, 31.2, 62.5, 125, 250, and 500 nM of peptides were each injected at a flow rate of […] for 180 seconds, to thereby monitor binding reaction. When dissociation reaction was measured, only the buffer was injected for 600 seconds. The interaction parameter was analyzed with BIAevaluation T100 software.
# IgG-binding peptide derivatives compared and evaluated are illustrated in FIG. 1.
# human IgG1 (human) [1] = assay: SPR, BIAcore T200, IgG immobilised on CM5 chip
# [2] = target: human serum-derived IgG (manufactured by Sigma-Aldrich Co. LLC); assay: peptide-immobilised column, human serum IgG, 10% breakthrough
# human IgG1 (human) [3] = assay: SPR, BIAcore T200, IgG immobilised on CM5 chip, peptide as analyte
# human IgG1 (human) [4] = assay: SPR, same affinity measurement as in Example 4
# [5] = 0.1 M phosphate buffer pH 7.0 containing 0.5 mg/mL TCEP
# [6] = in the presence of reducing agent TCEP
# [7] = number of washing times with 0.1 N NaOH: 1
molecule,measurement,setting,value
CCC(C)C1NC(=O)C(Cc2ccc(O)cc2)NC(=O)C(N)CS/C(=C/c2ccccc2)SCC(C(=O)N2CCCC2C(=O)NC(CC(C)C)C(=O)NCC(N)=O)NC(=O)C(CC(N)=O)NC(=O)C(CCC(N)=O)NC1=O (stereo not drawn) [oxytocin-DP-RDH],change of HPLC peak after addition of α-chymotrypsin,α-chymotrypsin; [5],no decrease was observed
same,resistance to protease (FIG. 10),α-chymotrypsin; [6],high resistance
CC(C)C[C@@H]1NC(=O)[C@H](CCC(=O)O)NC(=O)CNC(=O)[C@H](CCCNC(=N)N)NC(=O)[C@H](Cc2c[nH]cn2)NC(=O)[C@H](Cc2ccc(O)cc2)NC(=O)[C@H](C)NC(=O)[C@@H](NC(=O)[C@H](CC(=O)O)NC(=O)[C@@H]2CCCN2C(=O)CNC(=O)[C@H](CO)NC(=O)CNC(=O)CNC(=O)[C@H](CO)NC(=O)CN)CSSC[C@@H](C(=O)N[C@H](C(=O)N[C@@H](Cc2ccccc2)C(=O)N[C@@H](Cc2c[nH]cn2)C(=O)O)[C@@H](C)O)NC(=O)[C@H](Cc2c[nH]c3ccccc23)NC(=O)[C@H](C(C)C)NC1=O [IgG-BP-LongGS Original] (H-GSGGSGPDCAYHRGELVWCTFH-OH; disulfide 9-19; N-terminus and C-terminus assumed),change in amount of binding of the antibody to the column by alkali washing (FIG. 2),"human serum-derived IgG; 0.1 M NaOH washing/PBS washing, 1 to 30 cycles",reduced by alkali washing
same,"value of DBC, by itself, of peptide-immobilized column","human serum-derived IgG; before repeated alkali washing, 1 mL/min",17.24 mg/mL
same,initial value of DBC of peptide column,"human serum-derived IgG; initial value, 1 mg peptide on 1-mL column, 1 mL/min",17.24 mg/mL-column
same,Variation (%) in dynamic binding capacity,human serum-derived IgG; [7],100.0%
same,Variation (%) in maximum binding capacity,human serum-derived IgG; [7],100.0%
same,Maximum binding capacity,"human serum-derived IgG; number of washing times with 0.1 N NaOH: 1, 1 mg peptide on 1-mL column",12.37 mg
same,Dynamic binding capacity,"human serum-derived IgG; number of washing times with 0.1 N NaOH: 1, 1 mL/min",17.24 mg/mL
same,Variation (%) in maximum binding capacity,human serum-derived IgG; number of washing times with 0.1 N NaOH: 5,49.2%
same,Maximum binding capacity,"human serum-derived IgG; number of washing times with 0.1 N NaOH: 5, 1 mg peptide on 1-mL column",6.09 mg
same,Dynamic binding capacity,"human serum-derived IgG; number of washing times with 0.1 N NaOH: 5, 1 mL/min",8.74 mg/mL
same,Variation (%) in dynamic binding capacity,"human serum-derived IgG; number of washing times with 0.1 N NaOH: 5, listed as IgG-BP-LGS",50.7%
same,Variation (%) in dynamic binding capacity,"human serum-derived IgG; number of washing times with 0.1 N NaOH: 5, listed as original IgG-binding peptide-immobilized column having a disulfide bond",≤ 50%
same,kd,"human IgG1; SPR, IgG immobilized on CM5 chip, HBS-EP pH 7.4",0.019
same,ka,"human IgG1; SPR, IgG immobilized on CM5 chip, HBS-EP pH 7.4, in M-1 s-1 (unit assumed)",2.37E+06
"CCC(C)C1NC(=O)C(Cc2ccc(O)cc2)NC(=O)C(N)CSSCC(C(=O)N2CCCC2C(=O)NC(CC(C)C)C(=O)NCC(N)=O)NC(=O)C(CC(N)=O)NC(=O)C(CCC(N)=O)NC1=O (stereo not drawn) [oxytocin-OX, Cys-Tyr-Ile-Gln-Asn-Cys-Pro-Leu-Gly-NH2]",change of HPLC peak after addition of α-chymotrypsin,"α-chymotrypsin; 0.1 M phosphate buffer pH 7.0, no TCEP, 15 minutes to 2 hours",no change of any peak was observed
same,resistance to protease (FIG. 10),α-chymotrypsin; no TCEP,high protease resistance
CCC(C)C1NC(=O)C(Cc2ccc(O)cc2)NC(=O)C(N)CSC(C(=O)c2ccccc2)SCC(C(=O)N2CCCC2C(=O)NC(CC(C)C)C(=O)NCC(N)=O)NC(=O)C(CC(N)=O)NC(=O)C(CCC(N)=O)NC1=O (stereo not drawn) [oxytocin-DP],change of HPLC peak after addition of α-chymotrypsin,α-chymotrypsin; [5],no decrease was observed
same,resistance to protease (FIG. 10),α-chymotrypsin; [6],high resistance
C#CCON=C(C)C1SC[C@H](NC(=O)[C@H](CC(=O)O)NC(=O)[C@@H]2CCCN2C(=O)CNC(=O)[C@H](CO)NC(=O)CNC(=O)CNC(=O)[C@H](CO)NC(=O)CN)C(=O)N[C@@H](C)C(=O)N[C@@H](Cc2ccc(O)cc2)C(=O)N[C@@H](Cc2c[nH]cn2)C(=O)N[C@@H](CCCNC(=N)N)C(=O)NCC(=O)N[C@@H](CCC(=O)O)C(=O)N[C@@H](CC(C)C)C(=O)N[C@@H](C(C)C)C(=O)N[C@@H](Cc2c[nH]c3ccccc23)C(=O)N[C@H](C(=O)N[C@H](C(=O)N[C@@H](Cc2ccccc2)C(=O)N[C@@H](Cc2c[nH]cn2)C(N)=O)[C@@H](C)O)CS1 (stereo partly drawn) (H-GSGGSGPDCAYHRGELVWCTFH-NH2; linker 9-19 via X4; C-terminus assumed),reduction of affinity as compared with the original peptide,human IgG1; Kd relative to original disulfide IgG-binding peptide,about 42 fold
same,Kd,"human IgG1; SPR, human IgG1",334 nM
CCC(C)C(NC(=O)C(Cc1ccc(O)cc1)NC(=O)C(N)CS)C(=O)NC(CCC(N)=O)C(=O)NC(CC(N)=O)C(=O)NC(CS)C(=O)N1CCCC1C(=O)NC(CC(C)C)C(=O)NCC(N)=O (stereo not drawn) [oxytocin-RD],change of HPLC peak after addition of α-chymotrypsin,α-chymotrypsin; [5],any peak disappeared after only 10 minutes
same,resistance to protease (FIG. 10),α-chymotrypsin; [6],extremely low
"GSGGSGPDCAYHRGELVWCTFH (the thiol groups of the two Cys residues crosslinked with 1,3-dichloroacetone in place of the disulfide bond) [1,3-dichloroacetone-crosslinked cyclic peptide of IgG-BP-LongGS]",fold reduction of affinity against the original peptide,human IgG1 (human) [1],500 fold
same,initial value of DBC,[2],2.3 mg/mL-column
same,Kd,human IgG1 (human) [3],4900 nM
"GSGGSGPDCAYHRGELVWCTFH (not fully specified; the two Cys thiols crosslinked with 1,1-dichloroacetone; the crosslink reacted with O-2-Propynylhydroxylamine hydrochloride to introduce an alkyne group)",Kd,human IgG1 (human) [4],334 nM
same,fold reduction of affinity against the original peptide,human IgG1 (human) [4],42 fold
"GSGGSGPDCAYHRGELVWCTFH (the thiol groups of the two Cys residues crosslinked with 2,2-dichloroacetophenone in place of the disulfide bond; Fmoc removed) [2,2-dichloroacetophenone-crosslinked cyclic peptide of IgG-BP-LongGS]",Kd,human IgG1 (human) [3],6.4 nM
